Data from patent publication US20210300924A1, “5-[6-[[3-(4,5,6,7-TETRAHYDROPYRAZOLO[4,3-C]PYRIDIN-1-YL)AZETIDIN-1-YL]METHYL]MORPHOLIN-4-YL]QUINOLINE-8-CARBONITRILE DERIVATIVES AND SIMILAR COMPOUNDS AS TLR7-9 ANTAGONISTS FOR TREATING SYSTEMIC LUPUS ERYTHEMATOSUS” (Hoffmann-La Roche Inc., priority 2018, published 2021).

Biological target: T1, TLR9 (Homo sapiens, UniProt Q9NR96)
T1 sequence (Q9NR96 26-1032): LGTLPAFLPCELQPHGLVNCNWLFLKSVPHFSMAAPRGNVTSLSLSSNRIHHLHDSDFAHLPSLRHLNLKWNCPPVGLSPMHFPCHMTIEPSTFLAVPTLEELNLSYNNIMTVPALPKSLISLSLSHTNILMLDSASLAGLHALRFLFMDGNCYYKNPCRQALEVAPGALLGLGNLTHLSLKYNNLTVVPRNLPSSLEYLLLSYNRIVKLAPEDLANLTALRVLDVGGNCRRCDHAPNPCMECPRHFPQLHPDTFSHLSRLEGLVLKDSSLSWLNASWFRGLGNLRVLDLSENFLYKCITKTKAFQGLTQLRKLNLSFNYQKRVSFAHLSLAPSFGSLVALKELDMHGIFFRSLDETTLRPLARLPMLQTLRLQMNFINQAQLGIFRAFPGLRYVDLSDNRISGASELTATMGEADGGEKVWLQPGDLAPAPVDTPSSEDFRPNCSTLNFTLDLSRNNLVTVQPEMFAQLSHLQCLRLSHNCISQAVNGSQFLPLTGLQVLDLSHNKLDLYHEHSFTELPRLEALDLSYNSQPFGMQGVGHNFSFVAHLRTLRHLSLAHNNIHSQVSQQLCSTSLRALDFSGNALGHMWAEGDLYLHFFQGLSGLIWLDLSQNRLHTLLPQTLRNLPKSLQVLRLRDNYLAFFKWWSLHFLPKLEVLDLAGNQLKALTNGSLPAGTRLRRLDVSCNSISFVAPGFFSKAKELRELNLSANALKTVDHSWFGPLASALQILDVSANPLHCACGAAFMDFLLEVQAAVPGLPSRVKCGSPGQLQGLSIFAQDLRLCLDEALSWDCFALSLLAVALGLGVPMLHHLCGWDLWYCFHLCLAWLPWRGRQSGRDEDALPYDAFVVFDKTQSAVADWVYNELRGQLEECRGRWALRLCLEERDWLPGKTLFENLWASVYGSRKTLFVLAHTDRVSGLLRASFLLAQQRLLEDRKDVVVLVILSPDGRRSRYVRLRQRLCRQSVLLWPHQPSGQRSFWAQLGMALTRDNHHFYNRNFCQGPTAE
Test: HEK293-Blue-hTLR-9 cells assay
Format: cell-based
Parameters: host or cells: HEK293 (HEK-Blue hTLR9)
Conditions: HEK293-Blue-hTLR9 cells, ODN2006 stimulation, 20 hrs, SEAP reporter; read-out: HEK/hTLR9 IC50
From the text: HEK293-Blue-hTLR-9 Cells Assay:
A stable HEK293-Blue-hTLR-9 cell line was purchased from InvivoGen (Cat. #: hkb-htlr9, San Diego, Calif., USA). These cells were originally designed for studying the stimulation of human TLR9 by monitoring the activation of NF-κB. A SEAP (secreted embryonic alkaline phosphatase) reporter gene was placed under the control of the IFN-β minimal promoter fused to five NF-κB and AP-1-binding sites. The SEAP was induced by activating NF-κB and AP-1 via stimulating HEK-Blue hTLR9 cells with TLR9 ligands. Therefore the reporter expression was declined by TLR9 antagonist under the stimulation of a ligand, such as ODN2006 (Cat. #: tlr1-2006-1, Invivogen, San Diego, Calif., USA), for incubation of 20 hrs. The cell culture supernatant SEAP reporter activity was determined using QUANTI-Blue™ kit (Cat. #: rep-01, Invivogen, San Diego, Calif., USA) at a wavelength of 640 nm, a detection medium that turns purple or blue in the presence of alkaline phosphatase.
HEK293-Blue-hTLR9 cells were incubated at a density of 250,000-450,000 cells/mL in a volume of 170 μL in a 96-well plate in Dulbecco's Modified Eagle's medium (DMEM) containing 4.5 g/L glucose, 50 U/mL penicillin, […], 2 mM L-glutamine, 10% (v/v) heat-inactivated fetal bovine serum with addition of 20 μL test compound in a serial dilution in the presence of final DMSO at 1% and 10 μL of 20 uM ODN2006 in above DMEM, perform incubation under 37° C. in a CO2 incubator for 20 hrs. Then 20 μL of the supernatant from each well was incubated with 180 μL Quanti-blue substrate solution at 37° C. for 2 h and the absorbance was read at 620-655 nm using a spectrophotometer. The signaling pathway that TLR9 activation leads to downstream NF-κB activation has been widely accepted, and therefore similar reporter assay was modified for evaluating TLR9 antagonist.

IC50	Compound
0.082 µM	C[C@@H]1CN(c2ccc(C#N)c3ncccc23)C[C@H](CN2CC(n3cc4c(n3)[C@H](C)CNC4)C2)O1 (single isomer, unassigned) [Example 25]
0.089 µM	C[C@@H]1CN(c2ccc(C#N)c3ncccc23)C[C@H](CN2CC(n3cc4c(n3)[C@@H](C)CNC4)C2)O1 (single isomer, unassigned) [Example 26]
0.065 µM	C[C@@H]1CN(c2ccc(C#N)c3ncccc23)C[C@H](CN2CC(n3ncc4c3CN[C@@H](C)C4)C2)O1 (single isomer, unassigned) [Example 27]
0.071 µM	C[C@@H]1Cc2cnn(C3CN(C[C@H]4CN(c5ccc(C#N)c6ncccc56)C[C@@H](C)O4)C3)c2CN1 (single isomer, unassigned) [Example 28]
0.072 µM	C[C@@H]1CN(c2ccc(C#N)c3ncccc23)C[C@H](CN2CC(n3cc4c(n3)CN[C@@H](C)C4)C2)O1 (single isomer, unassigned) [Example 29]
0.057 µM	C[C@@H]1Cc2cn(C3CN(C[C@H]4CN(c5ccc(C#N)c6ncccc56)C[C@@H](C)O4)C3)nc2CN1 (single isomer, unassigned) [Example 30]
0.061 µM	C[C@@H]1CN(c2ccc(C#N)c3ncccc23)C[C@H](CN2CC(n3ncc4c3[C@@H](C)NCC4)C2)O1 (single isomer, unassigned) [Example 31]
0.062 µM	C[C@@H]1CN(c2ccc(C#N)c3ncccc23)C[C@H](CN2CC(n3ncc4c3[C@H](C)NCC4)C2)O1 (single isomer, unassigned) [Example 32]
0.034 µM	C[C@@H]1CN(c2ccc(C#N)c3ncccc23)C[C@H](CN2CC(n3cc4c(n3)[C@@H](C)NCC4)C2)O1 (single isomer, unassigned) [Example 33]
0.036 µM	C[C@@H]1CN(c2ccc(C#N)c3ncccc23)C[C@H](CN2CC(n3cc4c(n3)[C@H](C)NCC4)C2)O1 (single isomer, unassigned) [Example 34]
0.143 µM	C[C@@H]1CN(c2ccc(C#N)c3ncccc23)C[C@H](CN2CC(n3ncc4c3CNC4)C2)O1 [Example 10, 5-[(2S,6R)-2-[[3-(5,6-dihydro-4H-pyrrolo[3,4-c]pyrazol-1-yl)azetidin-1-yl]methyl]-6-methyl-morpholin-4-yl]quinoline-8-carbonitrile]
0.078 µM	Cc1nn(C2CN(C[C@H]3CN(c4ccc(C#N)c5ncccc45)C[C@@H](C)O3)C2)c2c1CNCC2 [Example 12, 5-[(2R,6S)-2-methyl-6-[[3-(3-methyl-4,5,6,7-tetrahydropyrazolo[4,3-c]pyridin-1-yl)azetidin-1-yl]methyl]morpholin-4-yl]quinoline-8-carbonitrile]
0.118 µM	Cc1c2c(nn1C1CN(C[C@H]3CN(c4ccc(C#N)c5ncccc45)C[C@@H](C)O3)C1)CCNC2 [Example 13, 5-[(2R,6S)-2-methyl-6-[[3-(3-methyl-4,5,6,7-tetrahydropyrazolo[4,3-c]pyridin-2-yl)azetidin-1-yl]methyl]morpholin-4-yl]quinoline-8-carbonitrile]
0.276 µM	Cc1nn(C2CN(C[C@H]3CN(c4ccc(C#N)c5ncccc45)C[C@@H](C)O3)C2)c2c1CN(C)CC2 [Example 14, 5-[(2S,6R)-2-[[3-(3,5-dimethyl-6,7-dihydro-4H-pyrazolo[4,3-c]pyridin-1-yl)azetidin-1-yl]methyl]-6-methyl-morpholin-4-yl]quinoline-8-carbonitrile]

The remaining lines, values behind:

Compound	IC50
C[C@@H]1CN(c2ccc(C#N)c3ncccc23)C[C@H](CN2CC(n3ncc4c3CCNC4)C2)O1 [Example 1, 5-[(2R,6S)-2-methyl-6-[[3-(4,5,6,7-tetrahydropyrazolo[4,3-c]pyridin-1-yl)azetidin-1-yl]methyl]morpholin-4-yl]quinoline-8-carbonitrile]	0.057 µM
C[C@@H]1CN(c2ccc(C#N)c3ncccc23)C[C@H](CN2CC(n3cc4c(n3)CCNC4)C2)O1 [Example 2, 5-[(2R,6S)-2-methyl-6-[[3-(4,5,6,7-tetrahydropyrazolo[4,3-c]pyridin-2-yl)azetidin-1-yl]methyl]morpholin-4-yl]quinoline-8-carbonitrile]	0.066 µM
C[C@@H]1CN(c2ccc(C#N)c3ncccc23)C[C@H](CN2CC(n3ncc4c3CNCC4)C2)O1 [Example 3, 5-[(2R,6S)-2-methyl-6-[[3-(4,5,6,7-tetrahydropyrazolo[3,4-c]pyridin-1-yl)azetidin-1-yl]methyl]morpholin-4-yl]quinoline-8-carbonitrile]	0.051 µM
C[C@@H]1CN(c2ccc(C#N)c3ncccc23)C[C@H](CN2CC(n3cc4c(n3)CNCC4)C2)O1 [Example 4, 5-[(2R,6S)-2-methyl-6-[[3-(4,5,6,7-tetrahydropyrazolo[3,4-c]pyridin-2-yl)azetidin-1-yl]methyl]morpholin-4-yl]quinoline-8-carbonitrile]	< 0.032 µM
C[C@@H]1CN(c2ccc(C#N)c3ncccc23)C[C@H](CN2CC(n3cc4c(n3)CN(C)CC4)C2)O1 [Example 5, 5-[(2R,6S)-2-methyl-6-[[3-(6-methyl-5,7-dihydro-4H-pyrazolo[3,4-c]pyridin-2-yl)azetidin-1-yl]methyl]morpholin-4-yl]quinoline-8-carbonitrile]	0.137 µM
CCN1CCc2cnn(C3CN(C[C@H]4CN(c5ccc(C#N)c6ncccc56)C[C@@H](C)O4)C3)c2C1 [Example 6, 5-[(2S,6R)-2-[[3-(6-ethyl-5,7-dihydro-4H-pyrazolo[3,4-c]pyridin-1-yl)azetidin-1-yl]methyl]-6-methyl-morpholin-4-yl]quinoline-8-carbonitrile]	0.153 µM
CCN1CCc2cn(C3CN(C[C@H]4CN(c5ccc(C#N)c6ncccc56)C[C@@H](C)O4)C3)nc2C1 [Example 7, 5-[(2S,6R)-2-[[3-(6-ethyl-5,7-dihydro-4H-pyrazolo[3,4-c]pyridin-2-yl)azetidin-1-yl]methyl]-6-methyl-morpholin-4-yl]quinoline-8-carbonitrile]	0.116 µM
CC(C)N1CCc2cnn(C3CN(C[C@H]4CN(c5ccc(C#N)c6ncccc56)C[C@@H](C)O4)C3)c2C1 [Example 8, 5-[(2S,6R)-2-[[3-(6-isopropyl-5,7-dihydro-4H-pyrazolo[3,4-c]pyridin-1-yl)azetidin-1-yl]methyl]-6-methyl-morpholin-4-yl]quinoline-8-carbonitrile]	0.125 µM
CC(C)N1CCc2cn(C3CN(C[C@H]4CN(c5ccc(C#N)c6ncccc56)C[C@@H](C)O4)C3)nc2C1 [Example 9, 5-[(2S,6R)-2-[[3-(6-isopropyl-5,7-dihydro-4H-pyrazolo[3,4-c]pyridin-2-yl)azetidin-1-yl]methyl]-6-methyl-morpholin-4-yl]quinoline-8-carbonitrile]	0.172 µM
C[C@@H]1CN(c2ccc(C#N)c3ncccc23)C[C@H](CN2CC(n3cc4c(n3)CNC4)C2)O1 [Example 11, 5-[(2S,6R)-2-[[3-(5,6-dihydro-4H-pyrrolo[3,4-c]pyrazol-2-yl)azetidin-1-yl]methyl]-6-methyl-morpholin-4-yl]quinoline-8-carbonitrile]	0.049 µM
